# According to patent US9783513B2, “STAT3 inhibitors and their anticancer use” (Ohio State Innovation Foundation, priority 2012, dated 2017):
# pIC50, pKd: −log10 of the molar value. “Also recorded” adds a separate entry of the source. Where two headings read alike, the source gives them in different places.
# What was measured:
# [1] = test system: human sarcoma cell line U2OS; assay: Cell viability (MTT) assay, U2OS; type: cell-based
# Procedure: (§1) Human sarcoma cell lines (RD2, RH30, U2OS) were seeded in 96-well plates at a density of 3,000 cells per well. The cells were incubated at 37° C. for a period of 24 hours. Different concentrations of LY-5 (0.1-10 μM), LY-3 (0.1-20 μM), and LLL12 (0.1-10 μM) prepared as a 20 mM stock solution in sterile DMSO were added in triplicate to the plates in the presence of 10% FBS. 3-(4,5-Dimethylthiazolyl)-2, 5-diphenyltetrazoliumbromide (MTT) was added to evaluate cell viability. The absorbance was read at 595 nm. IC50 values were determined using SigmaPlot 9.0 Software (Systat Software, Inc., San Jose, Calif.).
# (§2) Alternatively, cells were seeded in 96-well plates in triplicate at a density of 3,000 cells per well and given 24 hours to adhere. Cells were then treated with varying concentrations of the inhibitors in the presence of 10% FBS. The cells were incubated for 72 hours at 37° C. 25 μl of MTT dye (Sigma, #M5655) was added to each sample and incubated for 3.5 hours. After this, 100 μl of N,N-dimethylformamide (Sigma, #D4551) solubilization solution was added to each well. The absorbance at 450 nm was read the following day. Half-Maximal inhibitory concentrations (IC50) were determined using Sigma Plot 9.0 software (Systat Software Inc.).
# Table 6 below lists specific compounds as well as experimentally determined STAT3 activity in a cell-based assay. The STAT3 activity was determined using the cell viability assays with human sarcoma cell line U2OS as described above. The compounds in Table 6 were synthesized with methods identical or analogous to those described herein. The compound reference numbers (“Ref. No.”) in Table 6 correspond to the compound numbers used in Table 3.
# [2] = test system: human sarcoma cell line RH30; assay: Cell viability (MTT) assay, RH30; type: cell-based
# Procedure: as §1, §2
# (§3) Table 7 below lists specific compounds as well as experimentally determined STAT3 activity in a cell-based assay. The STAT3 activity was determined using the cell viability assays with human sarcoma cell lines (RD2, RH30, U2OS) as described above. The compound reference numbers (“Ref. No.”) in Table 7 correspond to the compound numbers used in Table 3.
# [3] = test system: human sarcoma cell line RD2; assay: Cell viability (MTT) assay, RD2; type: cell-based
# Procedure: as §1, §2, §3
# [4] = test system: phosphorylated STAT3 (Tyr705); assay: Western blot, constitutive STAT3 phosphorylation; type: cell-based, human; conditions: RH30
# [5] = test system: IL-6 induced STAT3 phosphorylation; assay: Western blot, IL-6 induced STAT3 phosphorylation; type: cell-based, human; conditions: MCF-7; LY-3 0.5-2.5 μM, LY-5 0.25-1 μM; 5 h; IL-6 25 ng/mL
# Procedure: (§4) RH30 cells were treated with DMSO, LY-5 (0.25-1 μM) and LY-3 (0.5-2.5 μM) prepared as a 20 mM stock solution in sterile DMSO at 60% to 80% confluence in the presence of 10% FBS for 24 hours. The sarcoma cell line EW8 was treated with DMSO and LY-5 (0.5-2.5 μM) prepared as a 20 mM stock solution in sterile DMSO at 60% to 80% confluence in the presence of 10% FBS for 24 hours. MCF-7 cells and DAOY cells were treated with DMSO, 25-50 ng/ml of IL-6, LY-5 (0.25-1 μM) or LY-3 (0.5-2.5 μM) prepared as a 20 mM stock solution in sterile DMSO, protein expressions of P-STAT3 (Tyr705) and STAT3 were tested. DAOY cells were treated with DMSO, 50 ng/ml of IFN-γ, LY-5 (1-5 μM) prepared as a 20 mM stock solution in sterile DMSO, protein expressions of P-STAT3 (Tyr705) and STAT3 were tested. MCF-7 cells were treated with DMSO, 50 ng/ml of OSM, LY-5 (1-2.5 μM) or LLL12 (1-2.5 μM) prepared as a 20 mM stock solution in sterile DMSO, protein expressions of P-STAT3 (Tyr705), P-STAT1, P-STAT5, P-ERK (T202/Y204), P-AKT, STAT3 and STAT1 were tested.
# The cells were harvested and lysed in cold radioimmunoprecipitation assay (RIPA) lysis buffer containing […] and phosphatase inhibitor cocktail, and were subjected to SDS-PAGE. Then they were transferred to PVDF membrane. Membranes were probed with primary antibodies (1:1,000) and horseradish peroxidase (HRP)-conjugated secondary antibody (1:10,000) (Cell Signaling Technology, Beverly, Mass.). Membranes were analyzed using Enhanced Chemiluminescence Plus reagents and scanned with the Storm Scanner (Amersham Pharmacia Biotech, Inc., Piscataway, N.J.).
# MCF-7 breast cancer cells were seeded in 10 cm plates and allowed to adhere overnight. The following day, the cells were serum-starved. The cells were then left untreated or were treated with LY-5 (0.25-1 μM) and LY-3 (0.5-2.5 μM) prepared as a 20 mM stock solution in sterile DMSO or DMSO. After 5 hours, the untreated and LY-5 and LY-3 treated cells were stimulated by IL-6 (25 ng/mL). The cells were harvested after 30 minutes and analyzed by Western blot. DAOY medulloblastoma cancer cells were seeded in 10 cm plates and allowed to adhere overnight. The following day, the cells were serum-starved. The cells were then left untreated or were treated with LY-5 (1-5 μM) prepared as a 20 mM stock solution in sterile DMSO or DMSO. After 2 hours, the untreated and LY-5 treated cells were stimulated by IL-6 (25 ng/mL). The cells were harvested after 30 minutes and analyzed by Western blot.
# STAT3 = STAT3 (Homo sapiens, UniProt P40763); assay: Microscale thermophoresis binding to STAT3; conditions: labeled STAT3 30 nM; LY17 1.52-50,000 nM
# Procedure: The method provides the dissociation constant, KD. The microscale thermophoresis experiments were carried out at NanoTemper Technologies, Inc. (Munich, Germany). In these experiments, the concentration of the NanoTemper-labeled STAT3 was kept constant (30 nM), while the concentration of the non-labeled binding partner (LY17) was varied between 1.52 nM-50,000 nM. After a short incubation the samples were loaded into MST standard glass capillaries and the MST-analysis was performed using the Monolith.NT115.
# [6] = test system: OSM induced STAT3 phosphorylation; assay: Western blot, OSM induced STAT3 phosphorylation; type: cell-based, human; conditions: MCF-7; 1-2.5 μM; OSM 50 ng/mL
# STAT5 = assay: Western blot, STAT5 after OSM stimulation; type: cell-based, human; conditions: MCF-7; 1 and 2.5 μM; OSM 50 ng/mL
# Procedure: as §4
# MCF-7 breast cancer cells were seeded in 10 cm plates and allowed to adhere overnight. The following day, the cells were serum-starved. The cells were then left untreated or were treated with LY-5 and LLL12 (1 μM and 2.5 μM) prepared as a 20 mM stock solution in sterile DMSO or DMSO. […] The cells were harvested after 30 minutes and analyzed by Western blot.
# [7] = Homo sapiens, Table 2, cell line not given, read-out: IC50
# [8] = Homo sapiens, Table 8, read-out: IC50 values vs. cell lines, U2OS
# Sequence of STAT3 (P40763 whole entry): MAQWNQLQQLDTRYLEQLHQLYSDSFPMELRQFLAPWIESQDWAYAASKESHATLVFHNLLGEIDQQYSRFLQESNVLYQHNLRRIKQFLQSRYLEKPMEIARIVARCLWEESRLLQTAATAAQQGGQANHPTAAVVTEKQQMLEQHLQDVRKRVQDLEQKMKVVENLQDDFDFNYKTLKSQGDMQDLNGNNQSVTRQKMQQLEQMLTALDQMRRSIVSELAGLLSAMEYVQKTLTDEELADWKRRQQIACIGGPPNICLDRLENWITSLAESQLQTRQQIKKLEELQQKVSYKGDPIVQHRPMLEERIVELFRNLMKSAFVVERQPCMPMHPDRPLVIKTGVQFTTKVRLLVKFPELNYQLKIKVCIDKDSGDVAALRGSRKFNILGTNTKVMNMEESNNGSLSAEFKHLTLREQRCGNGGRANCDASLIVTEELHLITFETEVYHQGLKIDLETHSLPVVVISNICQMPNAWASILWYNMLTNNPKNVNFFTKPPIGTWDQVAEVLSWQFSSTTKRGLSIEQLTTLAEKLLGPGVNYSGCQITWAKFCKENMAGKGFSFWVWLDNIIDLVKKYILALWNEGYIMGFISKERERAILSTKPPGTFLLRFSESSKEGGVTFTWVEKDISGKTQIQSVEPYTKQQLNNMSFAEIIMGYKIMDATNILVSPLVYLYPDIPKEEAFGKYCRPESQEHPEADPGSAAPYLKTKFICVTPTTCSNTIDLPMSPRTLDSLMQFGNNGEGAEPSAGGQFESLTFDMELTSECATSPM
compound,measurement,setting,value
"5,8-dioxo-6-(phenylamino)-5,8-dihydronaphthalene-1-sulfonamide [LY-7]",pIC50,"[1]; Table 2, cell line not given, read-out: IC50",5.60
"O=C1C(Nc2ccccc2)=CC2=NS(=O)(=O)c3cccc1c32 [LY-2, 4-(Phenylamino)-5H-naphtho[1,8-cd]isothiazol-5-one 1,1-dioxide]",pIC50,[1]; [7],5.30
"O=C1C(Nc2ccc([N+](=O)[O-])cc2Cl)=CC2=NS(=O)(=O)c3cccc1c32 [LY-3, 4-((2-chloro-4-nitrophenyl)amino)-5H-naphtho[1,8-cd]isothiazol-5-one 1,1-dioxide]",pIC50,[1]; [7],5.85
same,pIC50,"[1]; Homo sapiens, Table 7, read-out: IC50 U2OS",5.86
same,pIC50,[1]; [8],5.86
same,pIC50,"[2]; Table 7, read-out: IC50 RH30",5.94
same,pIC50,"[2]; Table 8, read-out: IC50 values vs. cell lines, RH30",5.94
same,pIC50,"[3]; Table 7, read-out: IC50 RD2",5.59
same,pIC50,"[3]; Table 8, read-out: IC50 values vs. cell lines, RD2",5.59
same,concentration almost completely inhibiting Tyr705 phosphorylation,[4]; 16 h,1 µM
same,constitutive STAT3 phosphorylation,"[4]; LY-3 0.5-2.5 μM, LY-5 0.25-1 μM, 16 h",decrease in STAT3 phosphorylation; also recorded: reduced in a dose-dependent manner
same,IL-6 induced STAT3 phosphorylation,[5],inhibit; also recorded: blocked the stimulation
"NS(=O)(=O)c1cccc2c1C(=O)C=C(Nc1ccccc1)C2=O [LY-7, 5,8-dioxo-6-(phenylamino)-5,8-dihydronaphthalene-1-sulfonamide]",pIC50,"[1]; Homo sapiens, Table 6, read-out: IC50",< 5.30
NS(=O)(=O)c1cccc2c1C(=O)C=C(Nc1ccccc1N1CCNCC1)C2=O [LY-17],pKd,STAT3,5.62
NC(=O)NS(=O)(=O)c1ccc(NC2=CC(=O)c3c(cccc3S(N)(=O)=O)C2=O)cc1 [LY-9],pIC50,[1]; [7],< 5.30
"NS(=O)(=O)c1cccc2c1C(=O)c1cccc(O)c1C2=O [LLL12, 5-hydroxy-9,10-dioxo-9,10-dihydroanthracene-1-sulfonamide, reference compound]",pIC50,[1]; [8],6.00
same,STAT3 phosphorylation at Y705 and S727,"[4]; 5 μM in DMSO or ethanol, 2 h",decrease in STAT3 phosphorylation at Y705 and S727
same,OSM induced STAT3 phosphorylation,[6],inhibit
same,inhibition of STAT5,STAT5,exhibit inhibition
"4-(naphthalen-2-ylamino)-5H-naphtho[1,8-cd]isothiazol-5-one 1,1-dioxide [LY-6]",pIC50,"[1]; Table 6, read-out: IC50",5.60
